In patent publication EP1382341A1, “Use of compositions comprising glycyrrhetinic acid and benzoyl peroxide for acne treatment” (Cognis Iberia, S.L., priority 2002, dated 2004):
≈ marks a conversion by molar mass, not a printed value. Where two headings read alike, the source gives them in different places.

How the values were obtained:
Assay type in all cases: cell-based
Propionibacterium acnes [1] = assay: Agar diffusion method (inhibition zones); settings: diameter of inhibition zone; Wilkins-Chalgren agar with 5 wt% sheep blood; 20 µl test substance; 18 to 24 at 37 °C, anaerobic
From the text: (§1) Die antibakterielle Wirksamkeit der Wirkstoffe und Wirkstoffinischungen wurde mit Hilfe der Diffusionsmethode auf Agar-Platten bzw. der Agar-Verdünnungsmethode untersucht. Dabei wird zunächst ein rundes Filterpapier definierten Durchmessers mit der Testlösung getränkt und dieses dann auf die Oberfläche einer Agarplatte aufgebracht, welche zuvor mit den Testmikroorganismen inokuliert worden war. Anschließend wird nach definierten Zeiten die Größe der Inhibierungszonen bestimmt. Diese Technik erlaubt es insbesondere die MIC (Minimum Inhibitory Concentration) als die niedrigste Testsubstanzkonzentration zu bestimmen, mit der noch eine vollständige Inhibierung der Mikroorganismen erzielt werden kann.
(§2) Agar-Diffusionsmethode. Das Inokulum wurde unter Verwendung einer frischen Kultur in einer stationären Wachstumsphase (nach ca. 18-24 h) in einer BHI-Lösung (Brain-Heart-InfüsionI) hergestellt. Die Bakteriensuspension wurde auf 0,5 MacFarland-Einheiten eingestellt, entsprechend 1,5 10^8 Kolonienbildende Einheiten (cfu)/ml; anschließend wurde die Suspension mit einer Kochsalzlösung 1/100 verdünnt, um einen Wert von 1,5 10^6 cfu/ml einzustellen. Anschließend wurde Mueller-Hinton Agar (Staphylococcus epidermis, Staphylococcus aureus) und Wilkins-Chalgrens Agar mit 5 Gew.-% Schafsblut (Propionobakterium acnes) 15 min bei 121 °C sterilisiert und dann in Petrischalen gegeben. Die Petrischalen wurden mit 2 bis 4 ml der Bakteriensuspensionen versetzt und bei Raumtemperatur getrocknet. Die Filterpapiere wurden mit 20 µl der Testsubstanzen getränkt und auf die Oberfläche der Agarplatten aufgebracht. Die inokulierten Petrischalen wurden 18 bis 24 bei 37 °C inkubiert (die Petrischalen mit Propionibacterium acnes unter anaeroben Bedingungen) und die antimikrobielle Wirksamkeit anschließend durch Bestimmung der Wachstumsinhibierungszone ermittelt. Die Ergebnisse sind in Tabelle 1 zusammengefasst. Angegeben sind ist jeweils der Durchmesser der Inhibierungsflächen in mm.

Staphylococcus aureus [2] = assay: Agar diffusion method (inhibition zones); settings: diameter of inhibition zone; Mueller-Hinton agar; filter paper with 20 µl test substance; 18 to 24 at 37 °C
From the text: as §1, §2

[3] = tested on: Staphylococcus epidermidis; assay: Agar diffusion method (inhibition zones); settings: diameter of inhibition zone; Mueller-Hinton agar; filter paper with 20 µl test substance; 18 to 24 at 37 °C
From the text: as §1, §2

Propionibacterium acnes [4] = assay: Agar dilution method (MIC determination); settings: lowest concentration with complete inhibition of growth, 37 °C, 18 to 24 h, mean of duplicate determinations
From the text: as §1
(§3) Agar Verdünnungsmethode (MIC-Bestimmung). Wie oben beschrieben wurden verschiedene Agars vorbereitet, mit unterschiedlichen Konzentrationen an Testsubstanzen versetzt, homogenisiert und dann getrocknet. Anschließend erfolgte die Inokulation der Petrischalen mit jeweils 2 µl der Bakteriensuspensionen. […] Es handelt sich jeweils um den Mittelwert von Doppelbestimmungen.

Staphylococcus aureus [5] = assay: Agar dilution method (MIC determination); settings: lowest concentration with complete inhibition of growth, 37 °C, 18 to 24 h, mean of duplicate determinations
From the text: as §1, §3

[6] = tested on: Staphylococcus epidermidis; assay: Agar dilution method (MIC determination); settings: lowest concentration with complete inhibition of growth, 37 °C, 18 to 24 h, mean of duplicate determinations
From the text: as §1, §3

Row | MIC (Propionibacterium acnes [4]; Cutibacterium acnes, read-out: MIC) | MIC (Staphylococcus aureus [5]; Staphylococcus aureus, read-out: MIC) | MIC ([6]; Staphylococcus epidermidis, read-out: MIC) | Compound | Inhibierungszonen (Propionibacterium acnes [1]) | Inhibierungszonen (Staphylococcus aureus [2]) | Inhibierungszonen [3] | MIC (Propionibacterium acnes [4]) | MIC (Staphylococcus aureus [5]) | MIC [6]
1 |  |  |  | Glyzyrrhetinsäure-Zinksalz [B1] | 4 mm | 5 mm | 5 mm | 1,25 mg/ml | >10000 µg/mL | 1,25 mg/ml
2 | 1250 µg/mL (≈ 5.16 mM) | > 10000 µg/mL | 1250 µg/mL (≈ 5.16 mM) | O=C(OOC(=O)c1ccccc1)c1ccccc1 [A1, Benzoylperoxid] | 7 mm | 5 mm | 5 mm |  |  | 
